# According to publication PMC8402619 (Viruses, 2021):
# Like-named read-outs stand apart in the source and are kept apart here.
# Legend:
# [1] = Renal clearance after 1 mg/kg intravenous, rat; type: in vivo, male Wistar-Hannover rats; conditions: 1 mg/kg intravenously
# [2] = Renal clearance after 1 mg/kg intravenous, rabbit; type: in vivo, female Dutch Belted rabbits; conditions: 1 mg/kg intravenously
# [3] = target: T1, CYP2B6 (Homo sapiens, UniProt P20813); assay: Reversible CYP inhibition in pooled human liver microsomes; type: in vitro ADME
# T1 sequence (P20813 1-491): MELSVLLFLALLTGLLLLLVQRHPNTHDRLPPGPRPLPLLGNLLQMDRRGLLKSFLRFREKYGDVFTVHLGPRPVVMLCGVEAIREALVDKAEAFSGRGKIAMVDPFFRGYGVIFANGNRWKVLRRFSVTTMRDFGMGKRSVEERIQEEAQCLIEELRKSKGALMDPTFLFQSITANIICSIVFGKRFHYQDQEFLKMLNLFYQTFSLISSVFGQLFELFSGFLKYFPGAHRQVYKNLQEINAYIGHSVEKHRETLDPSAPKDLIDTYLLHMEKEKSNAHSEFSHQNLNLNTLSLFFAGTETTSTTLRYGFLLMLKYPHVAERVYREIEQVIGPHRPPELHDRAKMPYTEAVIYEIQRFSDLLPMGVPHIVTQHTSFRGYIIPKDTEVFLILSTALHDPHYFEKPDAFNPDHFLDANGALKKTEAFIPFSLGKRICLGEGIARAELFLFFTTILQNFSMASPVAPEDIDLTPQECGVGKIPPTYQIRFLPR
# [4] = target: T1, CYP2B6; assay: Time-dependent CYP inhibition in pooled human liver microsomes; type: in vitro ADME
# [5] = target: CYP2C19 (Homo sapiens, UniProt P33261); assay: as above; type: in vitro ADME
# CYP2C19, sequence (P33261 whole entry): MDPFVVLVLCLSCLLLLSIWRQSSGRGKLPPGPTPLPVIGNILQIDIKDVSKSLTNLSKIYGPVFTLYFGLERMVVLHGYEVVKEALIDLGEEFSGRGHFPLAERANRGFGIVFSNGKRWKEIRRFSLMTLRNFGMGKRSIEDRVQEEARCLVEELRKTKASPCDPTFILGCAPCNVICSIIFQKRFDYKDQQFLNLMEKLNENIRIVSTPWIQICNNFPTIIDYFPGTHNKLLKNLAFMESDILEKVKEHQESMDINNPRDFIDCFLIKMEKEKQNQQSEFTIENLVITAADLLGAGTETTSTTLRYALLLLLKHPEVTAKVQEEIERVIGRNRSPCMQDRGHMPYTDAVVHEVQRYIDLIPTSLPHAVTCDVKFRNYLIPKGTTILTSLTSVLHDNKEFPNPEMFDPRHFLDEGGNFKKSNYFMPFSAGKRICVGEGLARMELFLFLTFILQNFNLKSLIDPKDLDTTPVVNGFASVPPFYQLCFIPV
# [6] = target: T2, BSEP (Homo sapiens, UniProt O95342); assay: Inhibition of ATP-dependent probe uptake in Sf9 membrane vesicles; type: in vitro ADME; conditions: BSEP-mediated ATP-dependent uptake of taurocholic acid
# T2 construct: purchased Thermo Fisher Scientific; host or cells: Sf9
# T2 sequence (O95342 whole entry): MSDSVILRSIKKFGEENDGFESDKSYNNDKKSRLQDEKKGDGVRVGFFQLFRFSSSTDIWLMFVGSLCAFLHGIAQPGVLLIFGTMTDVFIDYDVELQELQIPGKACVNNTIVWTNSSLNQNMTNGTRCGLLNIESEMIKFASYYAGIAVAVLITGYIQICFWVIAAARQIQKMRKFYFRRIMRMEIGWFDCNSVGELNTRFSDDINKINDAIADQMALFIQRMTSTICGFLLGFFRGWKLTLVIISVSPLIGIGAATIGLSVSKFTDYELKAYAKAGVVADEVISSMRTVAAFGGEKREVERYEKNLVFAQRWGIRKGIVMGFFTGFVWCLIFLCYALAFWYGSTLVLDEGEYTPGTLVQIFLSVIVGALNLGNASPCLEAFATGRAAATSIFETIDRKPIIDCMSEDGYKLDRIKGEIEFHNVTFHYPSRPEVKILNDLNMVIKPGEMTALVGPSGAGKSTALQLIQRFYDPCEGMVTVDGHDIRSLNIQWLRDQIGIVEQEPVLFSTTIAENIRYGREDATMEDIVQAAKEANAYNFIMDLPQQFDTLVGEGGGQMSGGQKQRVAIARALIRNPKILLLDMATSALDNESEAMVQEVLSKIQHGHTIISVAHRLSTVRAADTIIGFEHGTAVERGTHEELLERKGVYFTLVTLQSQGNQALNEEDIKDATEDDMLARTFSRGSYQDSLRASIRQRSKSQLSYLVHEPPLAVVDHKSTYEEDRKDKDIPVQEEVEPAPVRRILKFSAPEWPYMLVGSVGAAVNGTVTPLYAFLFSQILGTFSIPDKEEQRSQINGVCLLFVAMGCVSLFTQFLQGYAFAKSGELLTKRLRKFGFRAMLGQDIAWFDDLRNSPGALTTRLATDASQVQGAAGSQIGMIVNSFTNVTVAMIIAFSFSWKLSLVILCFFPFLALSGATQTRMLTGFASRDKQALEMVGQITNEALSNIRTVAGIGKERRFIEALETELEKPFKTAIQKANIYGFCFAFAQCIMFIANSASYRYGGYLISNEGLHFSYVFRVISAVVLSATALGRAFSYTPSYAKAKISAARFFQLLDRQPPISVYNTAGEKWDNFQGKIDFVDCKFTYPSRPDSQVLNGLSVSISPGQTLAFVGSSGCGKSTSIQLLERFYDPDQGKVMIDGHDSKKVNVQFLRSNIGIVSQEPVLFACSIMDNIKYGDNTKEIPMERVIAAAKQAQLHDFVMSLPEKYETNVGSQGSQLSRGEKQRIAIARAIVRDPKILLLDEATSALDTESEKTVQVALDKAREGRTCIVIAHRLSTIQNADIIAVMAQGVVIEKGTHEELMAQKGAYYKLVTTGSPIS
# [7] = target: T3, MRP3 (Homo sapiens, UniProt O15438); assay: as above; type: in vitro ADME; conditions: MRP3-mediated ATP-dependent uptake of E217βG
# T3 construct: purchased Thermo Fisher Scientific; host or cells: Sf9
# T3 sequence (O15438 whole entry): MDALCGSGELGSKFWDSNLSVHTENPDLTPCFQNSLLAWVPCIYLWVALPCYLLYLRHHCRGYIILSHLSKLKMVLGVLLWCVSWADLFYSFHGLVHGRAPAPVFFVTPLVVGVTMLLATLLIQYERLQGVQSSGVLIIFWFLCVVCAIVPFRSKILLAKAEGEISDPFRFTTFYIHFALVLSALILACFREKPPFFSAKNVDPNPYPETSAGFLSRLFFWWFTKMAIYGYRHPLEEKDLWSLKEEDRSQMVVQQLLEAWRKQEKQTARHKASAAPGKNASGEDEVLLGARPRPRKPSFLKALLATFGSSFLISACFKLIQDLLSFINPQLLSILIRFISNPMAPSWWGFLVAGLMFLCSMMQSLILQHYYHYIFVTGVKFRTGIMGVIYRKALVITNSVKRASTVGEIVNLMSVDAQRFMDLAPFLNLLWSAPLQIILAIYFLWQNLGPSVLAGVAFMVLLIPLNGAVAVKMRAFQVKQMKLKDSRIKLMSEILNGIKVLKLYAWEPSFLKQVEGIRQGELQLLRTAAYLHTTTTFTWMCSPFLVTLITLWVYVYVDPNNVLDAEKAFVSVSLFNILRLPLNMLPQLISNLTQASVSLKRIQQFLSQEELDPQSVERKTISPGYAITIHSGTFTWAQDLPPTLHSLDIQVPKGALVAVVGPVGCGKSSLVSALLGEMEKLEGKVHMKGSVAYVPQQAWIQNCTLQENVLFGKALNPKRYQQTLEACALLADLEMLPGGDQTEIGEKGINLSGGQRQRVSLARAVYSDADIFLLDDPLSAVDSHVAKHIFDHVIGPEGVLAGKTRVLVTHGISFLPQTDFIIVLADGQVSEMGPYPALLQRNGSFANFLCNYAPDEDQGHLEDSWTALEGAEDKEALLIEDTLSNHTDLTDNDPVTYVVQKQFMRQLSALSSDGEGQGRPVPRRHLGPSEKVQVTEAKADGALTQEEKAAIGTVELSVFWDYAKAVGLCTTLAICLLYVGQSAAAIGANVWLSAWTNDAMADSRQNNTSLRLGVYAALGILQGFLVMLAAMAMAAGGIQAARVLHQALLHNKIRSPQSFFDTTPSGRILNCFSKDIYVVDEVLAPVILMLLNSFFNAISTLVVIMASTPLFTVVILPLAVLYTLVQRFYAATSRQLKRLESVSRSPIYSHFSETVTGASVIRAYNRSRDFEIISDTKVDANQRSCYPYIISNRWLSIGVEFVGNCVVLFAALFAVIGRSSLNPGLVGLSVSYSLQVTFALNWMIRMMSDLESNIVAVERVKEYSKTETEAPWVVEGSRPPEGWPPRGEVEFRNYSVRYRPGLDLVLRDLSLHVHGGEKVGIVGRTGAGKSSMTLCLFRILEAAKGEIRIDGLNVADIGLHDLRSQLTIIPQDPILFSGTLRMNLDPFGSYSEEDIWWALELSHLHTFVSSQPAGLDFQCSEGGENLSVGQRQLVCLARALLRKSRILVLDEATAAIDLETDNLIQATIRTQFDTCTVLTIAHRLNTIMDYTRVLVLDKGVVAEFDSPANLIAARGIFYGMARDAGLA
# [8] = target: T4, OAT3 (Homo sapiens, UniProt Q8TCC7); assay: Inhibition of transporter-mediated probe uptake in MDCKII-OAT3 cells; type: in vitro ADME
# T4 construct: expressed in transfected cells; host or cells: MDCKII
# T4 sequence (Q8TCC7 1-542): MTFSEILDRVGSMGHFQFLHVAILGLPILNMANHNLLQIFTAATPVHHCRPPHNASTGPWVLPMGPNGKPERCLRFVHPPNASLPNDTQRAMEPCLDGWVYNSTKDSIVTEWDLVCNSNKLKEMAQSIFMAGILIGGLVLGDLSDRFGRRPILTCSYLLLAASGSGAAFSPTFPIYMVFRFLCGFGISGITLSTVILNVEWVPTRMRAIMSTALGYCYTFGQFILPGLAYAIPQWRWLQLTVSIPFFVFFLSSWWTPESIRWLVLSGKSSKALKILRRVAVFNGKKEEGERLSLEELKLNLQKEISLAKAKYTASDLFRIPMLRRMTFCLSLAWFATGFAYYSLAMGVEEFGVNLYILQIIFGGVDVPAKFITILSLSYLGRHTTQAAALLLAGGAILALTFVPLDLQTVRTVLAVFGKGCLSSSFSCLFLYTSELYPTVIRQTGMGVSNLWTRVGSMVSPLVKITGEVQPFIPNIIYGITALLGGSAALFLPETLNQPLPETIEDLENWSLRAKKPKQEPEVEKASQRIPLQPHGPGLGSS
# [9] = target: T5, OCT2 (Homo sapiens, UniProt O15244); assay: Inhibition of transporter-mediated probe uptake in CHO-K1-OCT2 cells; type: in vitro ADME
# T5 construct: expressed in transfected cells; host or cells: CHO-K1
# T5 sequence (O15244 1-555): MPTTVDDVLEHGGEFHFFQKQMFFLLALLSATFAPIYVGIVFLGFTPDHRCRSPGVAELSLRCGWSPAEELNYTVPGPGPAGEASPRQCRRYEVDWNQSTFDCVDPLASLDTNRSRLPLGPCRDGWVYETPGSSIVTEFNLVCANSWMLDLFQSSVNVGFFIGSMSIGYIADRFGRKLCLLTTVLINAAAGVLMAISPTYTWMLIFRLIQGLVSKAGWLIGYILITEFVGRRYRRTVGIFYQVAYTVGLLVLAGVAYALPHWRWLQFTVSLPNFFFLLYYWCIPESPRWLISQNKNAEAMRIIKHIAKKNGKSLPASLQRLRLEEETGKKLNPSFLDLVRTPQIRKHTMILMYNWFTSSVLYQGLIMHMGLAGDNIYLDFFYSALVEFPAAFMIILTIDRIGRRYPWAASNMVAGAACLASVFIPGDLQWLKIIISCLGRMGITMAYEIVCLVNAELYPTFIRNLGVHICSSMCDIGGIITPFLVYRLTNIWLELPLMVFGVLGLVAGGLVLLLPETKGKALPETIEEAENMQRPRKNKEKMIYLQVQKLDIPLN
# [10] = target: T4, OAT3; assay: Islatravir uptake as substrate, MDCKII vs MDCKII-OAT3 cells; type: in vitro ADME
# [11] = cited from earlier work
compound,measurement,setting,value
"C#C[C@]1(CO)O[C@@H](n2cnc3c(N)nc(F)nc32)C[C@@H]1O [Islatravir, 4′-Ethynyl-2-fluoro-2′-deoxyadenosine]",Renal Excretion (% Total Plasma Clearance),[1],17%
same,CL renal,"[1]; male, Wistar-Hannover, plasma and urine, iv, urine 0-24 h",11.5 mL/min/kg
same,Renal Excretion (% Total Plasma Clearance),[2],31%
same,CL renal,"[2]; female, Dutch Belted, plasma and urine, iv, urine 0-48 h",5.3 mL/min/kg
same,DDI Potential,"[3]; CYP2B6 reversible inhibition, FDA, EMA, PMDA guidance",Low risk
same,"Maximum Unbound Plasma Concentration (Imax,u) to Ki,u Ratio","[3]; CYP2B6 reversible, 60 mg, Cmax 1.01 µM, fu,p 0.96, Ki,u = IC50/2",<0.019 µM
same,IC50,"[3]; reversible, CYP2B6 bupropion hydroxylation, read-out: Islatravir IC50",> 100 µM
same,time-dependent inhibition,"[4]; CYP2B6, pre-incubation of 10 and 50 µM for up to 30 min",no time-dependent inhibition
same,DDI Potential,[4]; CYP2B6 time dependent inhibition,Low risk ^h
same,IC50,"[4]; time dependent, CYP2B6, read-out: Islatravir IC50",> 50 µM
same,time-dependent inhibition,"[5]; CYP2C19, pre-incubation of 10 and 50 µM for up to 30 min",no time-dependent inhibition
same,DDI Potential,[5]; CYP2C19 time dependent inhibition,Low risk ^h
same,IC50,"[5]; time dependent, CYP2C19, read-out: Islatravir IC50",> 50 µM
same,IC50,[6],> 100 µM
same,IC50,[7],> 100 µM
same,inhibition at 100 µM,"[8]; MDCKII-OAT3 cells, probe estrone sulfate, 100 µM islatravir",31%
same,IC50,"[8]; OAT3-mediated estrone sulfate uptake, read-out: Islatravir IC50",> 100 µM
same,"Maximum Unbound Plasma Concentration (Imax,u) to IC50 Ratio","[8]; OAT3, 60 mg, Cmax 1.01 µM, fu,p 0.96",<0.010 µM
same,DDI Potential,"[8]; OAT3 inhibition, FDA, EMA, PMDA guidance",Low risk
same,inhibition at 100 µM,"[9]; CHO-K1-OCT2 cells, probe metformin, 100 µM islatravir",15%
same,IC50,"[9]; OCT2-mediated metformin uptake, read-out: Islatravir IC50",> 100 µM
same,"Maximum Unbound Plasma Concentration (Imax,u) to IC50 Ratio","[9]; OCT2, 60 mg, Cmax 1.01 µM, fu,p 0.96",<0.010 µM
same,DDI Potential,"[9]; OCT2 inhibition, FDA, EMA, PMDA guidance",Low risk
same,Islatravir Uptake Transporter-Expressing Cells,"[10]; MDCKII-OAT3, 1 µM [3H]islatravir, 5 min, mean ± SD, n = 3",0.85 ± 0.06 pmole/10^6 Cells
same,Fold-Difference,"[10]; OAT3, uptake into transporter-expressing cells to control cells, 5 min",1.23
same,Islatravir Uptake Control Cells,"[10]; OAT3 row, MDCKII control cells, 1 µM [3H]islatravir, 5 min, mean ± SD, n = 3",0.69 ± 0.07 pmole/10^6 Cells
same,Conclusions,[10]; OAT3 substrate assessment,Non-substrate
same,"drug-drug interaction, PK",[11]; co-administered with doravirine,no clinically meaningful effects on the PK of either drug
same,drug-drug interaction,[11]; co-administration with levonorgestrel/ethinyl estradiol,No significant drug–drug interactions
same,"drug-drug interaction, PK",[11]; with tenofovir disoproxil fumarate and dolutegravir,no meaningful drug–drug interactions
